This is an account of results in patent US7358214B2, “Pyrazolyl carboxanilides for controlling unwanted microorganisms” (Bayer CropScience AG, priority 2003, dated 2008).

Each structure is given as a SMILES string.

Data set [1] in a line: logP determination by HPLC on reversed-phase column (C 18), pH 2.3. It counts as physicochemical. Particulars: reversed-phase HPLC column (C 18), HPLC reversed-phase C 18, 43° C. On the procedure:
The logP values given in the preparation examples and the tables above are determined in accordance with EEC Directive 79/831 Annex V.A8 by HPLC (High Performance Liquid Chromatography) on a reversed-phase column (C 18). Temperature: 43° C. The determination is carried out in the acidic range at pH 2.3 using the mobile phases 0.1% aqueous phosphoric acid and acetonitrile; linear gradient from 10% acetonitrile to 90% acetonitrile. Calibration is carried out using unbranched alkan-2-ones (having 3 to 16 carbon atoms) with known logP values (determination of the logP values by retention times using linear interpolation between two successive alkanones).

Another data set has as its system Puccinia recondita. The data set is described as follows: Puccinia test (wheat)/protective. Format: in vivo. The following applies: application rate 500 g/ha; protective; evaluation 10 days after inoculation. As to the method:
• Solvent: 25 parts by weight of N,N-dimethylacetamide • Emulsifier: 0.6 part by weight of alkylaryl polyglycol ether To produce a suitable preparation of active compound, 1 part by weight of active compound is mixed with the stated amounts of solvent and emulsifier, and the concentrate is diluted with water to the desired concentration. To test for protective activity, young plants are sprayed with the preparation of active compound at the stated application rate. After the spray coating has dried on, the plants are sprayed with a conidia suspension of Puccinia recondita. The plants remain in an incubation cabin at 20° C. and 100% relative atmospheric humidity for 48 hours. The plants are then placed in a greenhouse at a temperature of about 20° C. and a relative atmospheric humidity of 80% to promote the development of rust pustules. Evaluation is carried out 10 days after the inoculation. 0% means an efficacy which corresponds to that of the control, whereas an efficacy of 100% means that no infection is observed.

A further data set concerns Sphaerotheca fuliginea. The data set is described as follows: Spaerotheca test (cucumber)/protective. Format: in vivo. The following applies: application rate 100 g/ha; protective; evaluation 7 days after inoculation. On the procedure: (§1) [table] To produce a suitable preparation of active compound, 1 part by weight of active compound is mixed with the stated amounts of solvents and emulsifier, and the concentrate is diluted with water to the desired concentration. To test for protective activity, young plants are sprayed with the preparation of active compound at the stated application rate. After the spray coating has dried on, the plants are inoculated with an aqueous spore suspension of Sphaerotheca fuliginea. The plants are then placed in a greenhouse at about 23° C. and a relative atmospheric humidity of about 70%. Evaluation is carried out 7 days after the inoculation. 0% means an efficacy which corresponds to that of the control, whereas an efficacy of 100% means that no infection is observed.

The next data set has as its system Venturia inaequalis. The data set is described as follows: Venturia test (apple)/protective. The following applies: application rate 100 g/ha; protective; evaluation 10 days after inoculation. It counts as in vivo. On the procedure: as §1, with “conidia” for “spore”, “the apple scab pathogen Venturia inaequalis and then remain in an incubation cabin at about 20° C. and 100% relative atmospheric humidity for 1 day.” for “Sphaerotheca fuliginea.”, “21°” for “23°”, “90%.” for “70%.”, “10” for “7”

The next data set has as its system Botrytis cinerea. The data set is described as follows: Botrytis test (bean)/protective. Format: in vivo. The following applies: application rate 500 g/ha; protective; evaluation two days after inoculation. As to the method: [table] To produce a suitable preparation of active compound, 1 part by weight of active compound is mixed with the stated amounts of solvents and emulsifier, and the concentrate is diluted with water to the desired concentration. To test for protective activity, young plants are sprayed with the preparation of active compound at the stated application rate. After the spray coating has dried on, 2 small pieces of agar colonized by Botrytis cinerea are placed onto each leaf. The inoculated plants are placed in a dark chamber at about 20° C. and 100% relative atmospheric humidity. Two days after the inoculation, the size of the infected areas on the leaves is evaluated. 0% means an efficacy which corresponds to that of the control, whereas an efficacy of 100% means that no infection is observed.

The test system of a further data set is Alternaria mali. Kind of data set: In vitro test for the ED50 determination in microorganisms. The following applies: 50% inhibition of fungal growth, 22° C., 3-5 days, photometric at 620 nm. Format: cell-based. On the procedure: A methanolic solution of the active compound to be tested, mixed with emulsifier PS16, is pipetted into the wells of a microtiter plate. After the solvent has evaporated, 200 μl of potato dextrose medium are added to each well. Beforehand, a suitable concentration of spores or mycelium of the fungus to be tested was added to the medium. The resulting concentrations of active compound are 0.1, 1, 10 and 100 ppm. The resulting concentration of the emulsifier is 300 ppm. The plates are then incubated on a shaker at a temperature of 22° C. for 3-5 days, until sufficient growth can be observed in the untreated control. Evaluation is carried out photometrically at a wavelength of 620 nm. The dose of active compound which causes 50% inhibition of fungal growth compared to the untreated control (ED50) is calculated from data measured at different concentrations.

As for `CC(CC(C)(C)C)c1ccccc1NC(=O)c1c(C(F)(F)F)nn(C)c1F` (stereo not shown) [Example 1, [5-fluoro-1-methyl-3-(trifluoromethyl)pyrazol-4-yl]-N-[2-(1,3,3-trimethylbutyl)phenyl]carbox-amide], in data set [1], the chromatographic logP is 4.14.

For `CC(C)CC(C)c1ccccc1NC(=O)c1c(C(F)(F)F)nn(C)c1F` (stereo not shown) [Example 2], the chromatographic logP in data set [1] worked out at 3.88.

Consider `CCC(C)(C)CC(C)c1ccccc1NC(=O)c1c(C(F)(F)F)nn(C)c1F` (stereo not shown) [Example 3], for which the chromatographic logP in data set [1] was 4.45. Still for that read-out and setting: then `CCC(CC(C)C)c1ccccc1NC(=O)c1c(C(F)(F)F)nn(C)c1F` (stereo not shown) [Example 4], with 4.27. On the same count and under the same terms, then `CC(C)CC(C)c1cc(F)ccc1NC(=O)c1c(C(F)(F)F)nn(C)c1F` (stereo not shown) [Example 5], with 3.92. In turn, `CC(CC(C)(C)C)c1ccccc1NC(=O)c1c(C(F)(F)F)nn(C)c1F` (stereo not shown) [drawing 30] registered an Efficacy in % in the data set on Puccinia recondita of 100%. The same measure, in the same setting: under `CC(C)CC(C)c1ccccc1NC(=O)c1c(C(F)(F)F)nn(C)c1F` (stereo not shown) [drawing 31] stands 100%.

In turn, `CC(CC(C)(C)C)c1ccccc1NC(=O)c1c(C(F)(F)F)nn(C)c1F` (stereo not shown) [drawing 32] displayed an Efficacy in % in the data set on Sphaerotheca fuliginea of 100%.

Molecule `CC(C)CC(C)c1ccccc1NC(=O)c1c(C(F)(F)F)nn(C)c1F` (stereo not shown) [drawing 33] had an Efficacy in % in the data set on Sphaerotheca fuliginea of 100%. The same measure, in the same setting: under `CCC(C)(C)CC(C)c1ccccc1NC(=O)c1c(C(F)(F)F)nn(C)c1F` (stereo not shown) [drawing 34] stands 98%. The molecule `CC(CC(C)(C)C)c1ccccc1NC(=O)c1c(C(F)(F)F)nn(C)c1F` (stereo not shown) [drawing 35] had an Efficacy in % in the data set with Venturia inaequalis of 100%. In the data set with Venturia inaequalis, `CC(C)CC(C)c1ccccc1NC(=O)c1c(C(F)(F)F)nn(C)c1F` (stereo not shown) [drawing 36] came in with an Efficacy in % of 100%. The same measure, in the same setting: then `CCC(C)(C)CC(C)c1ccccc1NC(=O)c1c(C(F)(F)F)nn(C)c1F` (stereo not shown) [drawing 37], with 99%. On to `CC(CC(C)(C)C)c1ccccc1NC(=O)c1c(C(F)(F)F)nn(C)c1F` (stereo not shown) [drawing 38], for which the Efficacy in % with Botrytis cinerea was found to be 100%. The same measure, in the same setting: then `CC(C)CC(C)c1ccccc1NC(=O)c1c(C(F)(F)F)nn(C)c1F` (stereo not shown) [drawing 39], with 100%. Same read-out and setting: then `CCC(C)(C)CC(C)c1ccccc1NC(=O)c1c(C(F)(F)F)nn(C)c1F` (stereo not shown) [drawing 40], with 95%. As to `CC(CC(C)(C)C)c1ccccc1NC(=O)c1c(C(F)(F)F)nn(C)c1F` (stereo not shown) [drawing 41], the “ED50 value in ppm” value in the data set on Alternaria mali is on record as below 0.1 ppm.

Turning to `CC(C)CC(C)c1ccccc1NC(=O)c1c(C(F)(F)F)nn(C)c1F` (stereo not shown) [drawing 42], the “ED50 value in ppm” value with Alternaria mali came to 0.28 ppm. Same read-out and setting: then `CCC(C)(C)CC(C)c1ccccc1NC(=O)c1c(C(F)(F)F)nn(C)c1F` (stereo not shown) [drawing 43], with below 0.1 ppm.
